The record followed here is ChEMBL document CHEMBL3608267, “Identification of dialkyl diacetylene diols with potent cancer chemopreventive activity” (Bioorg Med Chem Lett, 2015).

Series [1] is described as follows: Chemopreventive index, ratio of IC50 for mouse Hepa-1c1c7 cells to drug concentration required to double induction of NQO1 in mouse Hepa-1c1c7 cells.
Series [2] concerns the target NAD(P)H dehydrogenase [quinone] 1 (Mus musculus) (UniProt Q64669). Kind of series: Induction of NQO1 in mouse Hepa-1c1c7 cells assessed as drug concentration required to double induction by quinone reductase assay. It is filed as cell-based.
Series [3] is described as follows: Toxicity against mouse Hepa-1c1c7 cells assessed as inhibition of cell proliferation. It is filed as cell-based.

The structures appear in SMILES notation.

Sequence of NAD(P)H dehydrogenase [quinone] 1 (Mus musculus) (Q64669 whole entry): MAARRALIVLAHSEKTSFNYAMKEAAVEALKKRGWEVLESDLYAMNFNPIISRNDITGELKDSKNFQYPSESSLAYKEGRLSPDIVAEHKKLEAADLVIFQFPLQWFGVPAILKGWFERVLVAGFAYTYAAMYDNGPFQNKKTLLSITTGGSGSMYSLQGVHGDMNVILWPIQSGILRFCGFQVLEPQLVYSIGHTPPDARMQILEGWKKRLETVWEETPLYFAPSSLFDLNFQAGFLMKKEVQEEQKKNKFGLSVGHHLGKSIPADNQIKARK

A word on the IC50: it is the concentration needed to halve the response being measured. As to `CCCCCCCCCC(O)C#CC#CC(O)C1CCCCC1` (stereo not drawn), the Ratio in series [1] was 4. Also, the CD in series [2] worked out at 11 µM. Also, the IC50 in series [3] was determined as 44 µM.

As to `CCCCCCCCCC(O)C#CC#CC(O)CCC` (stereo not drawn), the Ratio in series [1] is given as 7.2. Moreover, the CD in series [2] amounted to 4.2 µM. Besides, the IC50 in series [3] was 30 µM.

On to `CCCCCCCCCC(O)C#CC#CC(O)CC(C)C` (stereo not drawn), for which the Ratio in series [1] was greater than 5. Besides, the CD in series [2] came out at 10 µM. In series [3], the IC50 is greater than 50 µM.

With `C=CCCCCC/C=C\[C@@H](O)C#CC#C[C@@H](O)[C@H](C)O`, the Ratio in series [1] is recorded as greater than 6.1. Moreover, the CD in series [2] worked out at 8.2 µM. In addition, in series [3], the IC50 is greater than 50 µM.

For the molecule `CCCCCC(O)C#CC#CCO` (racemic), in series [1], the Ratio is greater than 11. For the same molecule, in series [2], the CD came to 4.7 µM. Besides, the IC50 in series [3] is greater than 50 µM.

With `CCCCC[C@H](O)C#CC#C[C@@H](O)CCCCC`, the Ratio in series [1] is 18. Also, the CD in series [2] is 2.6 µM. The IC50 in series [3] amounted to 47 µM.

As to `CCCCCC(O)C#CC#CC(O)CCCCC` (mixture of isomers), the Ratio in series [1] is listed as greater than 16. Besides, the CD in series [2] is 3.1 µM. For the same molecule, the IC50 in series [3] was greater than 50 µM.

For the molecule `CC(C)CC(O)C#CC#CC(O)C1CCCCC1` (stereo not drawn), the Ratio in series [1] was greater than 8.9. Besides, the CD in series [2] amounted to 5.6 µM. Also, in series [3], the 50% inhibitory concentration (IC50) is greater than 50 µM.

For `CCCCCC(O)C#CC#CC(O)CC(C)C` (stereo not drawn), in series [1], the Ratio is 32. Besides, in series [2], the CD came to 1.3 µM. In series [3], the IC50 stood at 41 µM.

For the molecule `CCCCCC(O)C#CC#CC(O)C1CCCCC1` (mixture of isomers), the Ratio in series [1] is greater than 16. Further, the CD in series [2] was 3.2 µM. Moreover, the IC50 in series [3] was greater than 50 µM.

For `CCCC(O)C#CC#CC(O)C1CCCCC1` (stereo not drawn), the Ratio in series [1] is on record as greater than 8.1. Further, in series [2], the CD stood at 6.2 µM. Also, the IC50 in series [3] is greater than 50 µM.

Take `CCCCC[C@H](O)C#CC#C[C@H](O)CCCCC`: in series [1], the Ratio was found to be 14. For the same molecule, the CD in series [2] worked out at 4.7 µM. For the same molecule, the IC50 in series [3] worked out at 68 µM.

`CCCCC[C@H](O)C#CC#CCO`: the Ratio in series [1] is greater than 31. Further, the CD in series [2] was 3.2 µM. Moreover, the 50% inhibitory concentration (IC50) in series [3] is greater than 100 µM.

Take `CCCCC[C@@H](O)C#CC#C[C@H](O)CCCCC`: the Ratio in series [1] turned out to be 20. Also, the CD in series [2] stood at 0.6 µM. For the same molecule, the IC50 in series [3] came to 12 µM.

For the molecule `OC(C#CC#CC(O)C1CCCCC1)C1CCCCC1` (stereo not drawn), the Ratio in series [1] is on record as greater than 6. In addition, the CD in series [2] was 8.4 µM. The IC50 in series [3] was greater than 50 µM.

For `CCCCC[C@@H](O)C#CC#CCO`, in series [1], the Ratio is greater than 43. Further, the CD in series [2] turned out to be 2.3 µM. The IC50 in series [3] was greater than 100 µM.

For the molecule `CCCCCCCCCC(O)C#CC#CC(O)CCCCC` (stereo not drawn), in series [1], the Ratio is recorded as 4.6. In series [2], the CD was determined as 2.6 µM. Besides, in series [3], the IC50 came to 12 µM.

Turning to `CCCCCC(O)C#CC#CC(O)CCC` (stereo not drawn), the Ratio in series [1] is 24. Besides, the CD in series [2] worked out at 0.8 µM. Also, in series [3], the IC50 stood at 19 µM.

With `C[S+]([O-])CCCCN=C=S` (stereo not drawn) [SULFORAPHANE], the Ratio in series [1] was determined as 27. Further, the CD in series [2] worked out at 0.4 µM. The IC50 in series [3] stood at 11 µM.

As for `CCCCCCCCCC(O)C#CC#CC(O)CCCCCCCCC` (stereo not drawn), the Ratio in series [1] was determined as 1. Also, the CD in series [2] is 26 µM. For the same molecule, in series [3], the IC50 stood at 26 µM.

For `CCCC(O)C#CC#CCO` (stereo not drawn), in series [1], the Ratio is listed as greater than 8.3. In series [2], the CD is 6 µM. Moreover, the IC50 in series [3] is greater than 50 µM.
